Experimental data published in US8008340B2, “3-arylthioindole-2-carboxamide derivatives and analogs thereof as inhibitors of casein kinase I” (Aventis Pharmaceuticals Inc., priority 2004, dated 2011).

Test system: Mper1-luc Rat-1 fibroblasts (P2C4)
Assay: Cellular Circadian Assay (Mper1-luc reporter, period lengthening)
Format: cell-based
Details: effective micromolar concentration that induced a 1 hour lengthening of period
Description: U.S. Pat. No. 6,555,328 B1 discloses screening methods in cells to identify compounds that alter circadian rhythms based on a test compound altering the ability of human casein kinase 1ε and/or human casein kinase 1δ to phosphorylate the human clock proteins hPER1, hPER2 and hPER3. For example, HEK293T cells are co-transfected with hCKIε and Per1 or Per2. For the purpose of evaluating the relevancy of CKIε inhibition and CKIε inhibitors to circadian biology, a high-throughput cellular assay (33rd Annual Meeting, Soc. for Neurosci., Nov. 8-12, 2003, Abstract numbers 284.1, 284.2, and 284.3) was developed in which circadian rhythm could be monitored in a routine manner. The assay consists of Rat-1 fibroblasts stably expressing an Mper1-luc construct, thus enabling the determination of the rhythmic activation of the Mper1 promoter in living cells by repeatedly estimating luciferase activity by monitoring light-output over several days. The repeated measure format of the assay permits accurate and reproducible assessment of the concentration-dependent effects of CKIε inhibitors on circadian rhythm and provides the nexus for relating CKIε inhibition to circadian period alteration.
Cell culture: Mper1-luc Rat-1 fibroblasts (P2C4) cultures were split every 3-4 days (˜10-20% confluence) onto 150 cm^2 vented polystyrene tissue culture flasks (Falcon #35-5001) and maintained in growth media [EMEM (Cellgro #10-010-CV); 10% fetal bovine serum (FBS; Gibco #16000-044); and 50 I.U./mL penicillin-streptomycin (Cellgro #30-001-C1)] at 37° C. and 5% CO2. […] Zeocin-resistant stable transfectants were assessed for reporter expression by supplementing growth media with 100 μM luciferin (Promega #E1603) and assaying luciferase activity on a TopCount scintillation counter (Packard Model #C384V00). Rat-1 clones expressing both Zeocin-resistance and mPer1-driven luciferase activity were synchronized by 50% horse serum [HS (Gibco #16050-122)] serum shock and assessed for circadian reporter activity. […]

Which “Cell Assay ECΔτ+1h” value does the source give for `COc1ccc2[nH]c(C(N)=O)c(Sc3ccccc3N)c2c1` [Ie, 3-(2-Amino-phenylsulfanyl)-5-methoxy-1H-indole-2-carboxylic acid amide] here?
Its value is greater than 10 µM.

For `NC(=O)c1[nH]c2ccccc2c1Sc1cccc(F)c1` [If, 3-(3-Fluoro-phenylsulfanyl)-1H-indole-2-carboxylic acid amide], which “Cell Assay ECΔτ+1h” value is on record?
The value was 1.6 µM.

With `NC(=O)c1[nH]c2ccc(Br)cc2c1Sc1ccccc1N` [Ig, 3-(2-Amino-phenylsulfanyl)-5-bromo-1H-indole-2-carboxylic acid amide] as the molecule, how does the “Cell Assay ECΔτ+1h” value read?
The value was 1.6 µM.

Test system: not given
Assay: not given
Details: not given

For `O=C(c1[nH]c2ccc(F)cc2c1Sc1ccccn1)N1CCCC1` [Iaf, [5-Fluoro-3-(pyridin-2-ylsulfanyl)-1H-indol-2-yl]-pyrrolidin-1-yl-methanone], which melting point is on record?
Its melting point is 254 to 255 °C.

With `O=C(c1[nH]c2ccccc2c1Sc1ccccn1)N1CCCC1` [Iag, [3-(Pyridin-2-ylsulfanyl)-1H-indol-2-yl]-pyrrolidin-1-yl-methanone] as the molecule, how does the melting point read?
The melting point was 213 to 214 °C.

With `NC(=O)c1[nH]c2ccccc2c1Sc1ccccc1` [Ic, 3-Phenylsulfanyl-1H-indole-2-carboxylic acid amide] as the molecule, how does the melting point read?
Its melting point is 197 to 197.5 °C.

With `Cc1ccc(Sc2c(C(=O)N3CCCC3)[nH]c3ccc(F)cc23)cc1` [Iw, (5-Fluoro-3-p-tolylsulfanyl-1H-indol-2-yl)-pyrrolidin-1-yl-methanone] as the molecule, how does the melting point read?
The melting point was 254 to 255 °C.

With `O=C(c1[nH]c2ccccc2c1Sc1ccccc1)N1CCCCC1` [Ix, (3-Phenylsulfanyl-1H-indol-2yl)-piperidin-1-yl-methanone] as the molecule, how does the melting point read?
The melting point was 161 to 162 °C.

For `O=C(c1[nH]c2ccc(F)cc2c1Sc1ccccc1)N1CCCC1` [Iy, (5-Fluoro-3-phenylsulfanyl-1H-indol-2-yl)-pyrrolidin-1-yl-methanone], which melting point is on record?
Its melting point is 254 to 255 °C.

Biological target: T1, casein kinase 1ε (Homo sapiens, UniProt P49674)
T1 construct: made in house
T1 sequence (P49674 whole entry): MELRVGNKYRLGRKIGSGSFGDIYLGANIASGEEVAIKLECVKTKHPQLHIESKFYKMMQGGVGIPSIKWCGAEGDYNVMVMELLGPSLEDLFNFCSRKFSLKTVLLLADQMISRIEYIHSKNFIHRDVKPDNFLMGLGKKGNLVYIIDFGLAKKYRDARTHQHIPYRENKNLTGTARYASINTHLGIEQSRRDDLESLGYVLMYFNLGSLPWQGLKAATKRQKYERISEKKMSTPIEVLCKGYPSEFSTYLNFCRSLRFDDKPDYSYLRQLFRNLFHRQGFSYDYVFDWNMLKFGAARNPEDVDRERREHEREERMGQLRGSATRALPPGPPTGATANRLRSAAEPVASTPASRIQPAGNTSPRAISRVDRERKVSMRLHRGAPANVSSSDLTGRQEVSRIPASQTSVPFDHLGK
Assay: Casein Kinase Epsilon 33P-ATP Filter Plate Assay
Format: biochemical
Details: phosphorylation of casein, 33P-ATP with 10 μM cold ATP, 2 hours at room temperature; * denotes average of two or more determinations; read-out: CKIε Inhibition IC50
Protocol: Casein Kinase Epsilon ^33P-ATP Filter Plate Assay for Screening CK1ε Inhibitors Purpose: This assay measures the effect of compounds to inhibit the phosphorylation of the substrate casein by the enzyme casein kinase 1ε using an in vitro ^33P-ATP filtration assay. Compounds are tested at five concentrations in duplicate in order to generate IC50 values or % inhibition at a 10 micromolar concentration that are summarized in Table 4.
Enzyme: • Casein Kinase 1ε final concentration 0.58 mg/ml obtained from fermentation and purification processes as are well known to one skilled in the art. The above are stored as 100 μL aliquots at minus 80° C.
Compounds: • Compounds for testing are supplied as frozen 10 mM compound stock dissolved in 100% DMSO. Assay Conditions:
Final total assay volume per well is equal to 50 μL made up as follows: • 5 μL of diluted compound stock (10, 1, 0.1, 0.01 or 0.001 μM), • 5 μL of dephosphorylated casein final concentration 0.2 μg/μL, • 20 μL of CK1ε final concentration 3 ng/μL, and • 20 μL of γ-^33P-ATP final concentration 0.02 μCi/μL mixed with cold ATP (10 μM final). Methodology: • 1. 500 mL of fresh assay buffer is made: 50 mM Tris pH 7.5, 10 mM MgCl2, 2 mM DTT and 1 mM EGTA • 2. Compounds to be evaluated are obtained as 10 μL of 10 mM stock dissolved in 100% DMSO. Using a Biomek 2000 liquid handling robot, serial dilutions are made to yield 10, 1, 0.1, 0.01 and 0.001 μM final compound dilutions added as 5 μL additions to Falcon U bottom plates. Typically 8 compounds are tested per 96 well plate with column 1 and 12 serving as control wells. A routine screening assay will consist of 32 compounds, which equals 4 assay plates. • 3. Assay plate maps are set up according to the following pattern CKlePlateMap.xls
• 4. Once 5 μL of compound has been added as indicated, 5 μL of dephosphorylated casein (dissolved in distilled H2O)(0.2 μg/μL) and 20 μL CK1ε (3 ng/μL) are added to the appropriate wells. • 5. Finally 20 μL γ-^33P-ATP (0.02 μCi/μL)/10 μM cold ATP are added (equals approximately 2×10^6 CPM per well). • 6. The Falcon U-Bottom assay plate containing the above 50 μL reaction volume is vortexed and then incubated at room temperature for 2 hours. • 7. At the end of 2 hours, the reaction is stopped by the addition of 65 μL of ice cold 2 mM cold ATP (made up in assay buffer) to the assay plates using a Beckman Multimek • 8. At the same time 25 μL 100% ice cold TCA made up in distilled H2O is added to a matching number of Millipore MAPH filter plates. • 9. Using a handheld 8-channel pipettor, 100 μL of the reaction mixture is transferred from the Falcon U-Bottom Plate to the Millipore MAPH filter plates presoaked with TCA. • 10. The Millipore MAPH filter plates are mixed gently and allowed to sit at room temperature for at least 30 minutes to precipitate the proteins. • 11. After 30 minutes the filter plates are placed on a Millipore vacuum manifold and filtered at no more than 8 mm Hg as the MAPH filters tend to “air lock” at higher vacuum settings. • 12. The filter plates are sequentially washed and filtered with 2×150 μL 20% TCA, 2×150 μL 10% TCA and 2×150 μL 5% TCA (total of 6 washes per plate/900 μL per well). • 13. Plates are allowed to dry overnight at room temperature. The next day 40 μL Packard Microscint-20 Scintillation Fluid is added per well using a Titertek Multidrop dispenser; the plates are sealed and counted for 2 minutes/well in a Packard Topcount NXT Scintillation Counter (CPM values/well are captured).
Calculation: • 1. Counts Per Minute (CPM) data is captured and imported into a proprietary data calculation and archiving database (Activity Base by IDBS version 5.0). • 2. Column 1 for each plate reflects total phosphorylation activity of the enzyme in the absence of any inhibiting compound and thus represents 100%. Column 12 reflects any nonspecific phosphorylation/retained radioactivity activity in the absence of inhibiting compound and enzyme. […]

With `NC(=O)c1[nH]c2ccc(Cl)cc2c1S(=O)(=O)c1ccccc1` [Ia, 3-Benzensulfonyl-5-chloro-1H-indole-2-carboxylic acid amide] as the molecule, how does the IC50 read?
Its IC50 is greater than 10 µM.

Which IC50 does the source give for `NC(=O)c1[nH]c2ccccc2c1S(=O)(=O)c1ccccc1` [Ib, 3-Benzensulfonyl-1H-indole-2-carboxylic acid amide] here?
Its IC50 is 2.7 µM.

Which IC50 does the source give for `NC(=O)c1[nH]c2ccccc2c1Sc1ccccc1` [Ic, 3-Phenylsulfanyl-1H-indole-2-carboxylic acid amide] here?
The IC50 was 3.1 µM.

For `NC(=O)c1[nH]c2ccc(Br)cc2c1Sc1ccccc1` [Id, 5-Bromo-3-phenylsulfanyl-1H-indole-2-carboxylic acid amide], which IC50 is on record?
Its IC50 is 0.42 µM.

With `COc1ccc2[nH]c(C(N)=O)c(Sc3ccccc3N)c2c1` [Ie, 3-(2-Amino-phenylsulfanyl)-5-methoxy-1H-indole-2-carboxylic acid amide] as the molecule, how does the IC50 read?
The IC50 was 0.18 µM.

For `NC(=O)c1[nH]c2ccccc2c1Sc1cccc(F)c1` [If, 3-(3-Fluoro-phenylsulfanyl)-1H-indole-2-carboxylic acid amide], which IC50 is on record?
The IC50 was 0.43 µM.

For `NC(=O)c1[nH]c2ccc(Br)cc2c1Sc1ccccc1N` [Ig, 3-(2-Amino-phenylsulfanyl)-5-bromo-1H-indole-2-carboxylic acid amide], which IC50 is on record?
The IC50 was 0.12 µM.

With `NC(=O)c1[nH]c2ccccc2c1Sc1ccccc1N` [Ih, 3-(2-Amino-phenylsulfanyl)-1H-indole-2-carboxylic acid amide] as the molecule, how does the IC50 read?
Its IC50 is 0.08 µM.

For `NC(=O)c1[nH]c2ccccc2c1Sc1ccccn1` [Ii, 3-(Pyridin-2-ylsulfanyl)-1H-indole-2-carboxylic acid amide], which IC50 is on record?
Its IC50 is 187 µM.

For `CNC(=O)c1[nH]c2ccccc2c1Sc1ccccc1` [Ij, 3-Phenylsulfanyl-1H-indole-2-carboxylic Acid Methylamide], which IC50 is on record?
Its IC50 is greater than 10 µM.

With `CNC(=O)c1[nH]c2ccccc2c1Sc1ccccn1` [Ik, 3-(Pyridin-2-ylsulfanyl)-1H-indole-2-carboxylic acid methylamide] as the molecule, how does the IC50 read?
Its IC50 is greater than 10 µM.

For `NC(=O)c1[nH]c2ccccc2c1Oc1ccccc1` [Il, 3-Phenoxy-1H-indole-2-carboxylic acid amide], which IC50 is on record?
Its IC50 is greater than 10 µM.

For `COc1ccc(Oc2c(C(N)=O)[nH]c3ccccc23)cc1` [Im], which IC50 is on record?
Its IC50 is 5.8 µM.

Which IC50 does the source give for `NC(=O)c1[nH]c2ccccc2c1Oc1ccc(F)cc1` [In] here?
The IC50 was 0.89 µM.

Which IC50 does the source give for `NC(=O)c1[nH]c2ccccc2c1Oc1ccccc1F` [Io] here?
Its IC50 is 2.4 µM.

Which IC50 does the source give for `NC(=O)c1[nH]c2ccccc2c1Oc1ccc(Cl)cc1` [Ip] here?
The IC50 was 2.8 µM.

For `COc1c(C(N)=O)[nH]c2ccccc12` [Iq, 3-Methoxy-1H-indole-2-carboxylic acid amide], which IC50 is on record?
Its IC50 is 13.5 µM.

With `CCOc1c(C(N)=O)[nH]c2ccccc12` [Ir, 3-Ethoxy-1H-indole-2-carboxylic acid amide] as the molecule, how does the IC50 read?
The IC50 was 8.7 µM.

Which IC50 does the source give for `CC(C)Oc1c(C(N)=O)[nH]c2ccccc12` [Is, 3-Isopropoxy-1H-indole-2-carboxylic acid amide] here?
Its IC50 is 8.9 µM.

With `CC(C)(C)Oc1c(C(N)=O)[nH]c2ccccc12` [It, 3-tert-Butoxy-1H-indole-2-carboxylic acid amide] as the molecule, how does the IC50 read?
Its IC50 is 11.7 µM.

For `NC(=O)c1[nH]c2ccccc2c1OCc1ccccc1` [Iu, 3-Benzyloxy-1H-indole-2-carboxylic acid amide], which IC50 is on record?
Its IC50 is 9.9 µM.
